Measured values published in US11155567B2, “Sting agonist compounds and methods of use” (Mersana Therapeutics, Inc., priority 2019, dated 2021).

What was measured:
Type in all cases: cell-based
[1] = target: T1, Human STING (HAQ allele) (Homo sapiens, UniProt Q86WV6, G230A/H232R/R293Q/R71H); assay: IRF3 reporter induction in THP1-Dual Human Monocytes cells (homozygous HAQ STING allele); conditions: IRF3 reporter (secreted luciferase), 24 hours incubation
T1 construct: THP1-Dual™ Human Monocytes cells with the homozygous HAQ allele; host or cells: THP1-Dual human monocytes
Procedure: (§1) THP1-Dual™ Human Monocytes cells with the homozygous HAQ allele, known to be a natural variant allele of STING occurring in 20% of the human population (Invivogen) have been engineered with two independent gene reporter systems: a secreted embryonic alkaline phosphatase (SEAP) reporter gene for NFkB activity, and secreted luciferase reporter for […] (IRF3) activity were used. 4×10^5 THP1-Dual™ cells were incubated with test Compounds in a 5-fold titration steps from 1 to 0.0128 μM in RPMI media with 10% FBS, for 24 hours at 37° C. with 5% CO2. Cell culture supernatants (20 μl) from each incubated sample was added to resuspended QUANTI-Blue™ Solution (Invivogen, 180 μl) in each well of a flat-bottom 96-well plate, then incubated for 2 h. NFkB levels were evaluated using a spectrophotometer at 620-655 nm.
(§2) To evaluate IRF3 reporter levels, cell culture supernatant (20 μl) from each incubated sample was added to QUANTI-Luc™ assay solution (Invivogen, 50 μl), and the luminescence was measured with a SpectraMax M3 spectrophotometer (Molecular Devices).
(§3) The EC50 value was determined from the dose response curve based on reference Compounds. Table 2a provides the results for IRF3 reporter induction THP1-Dual™ Human Monocytes cells and Table 2b provides the results for IRF3 reporter induction in THP1-Dual™ KI-hSTING-H232 Cells and THP1-Dual™ KI-hSTING-R232 Cells (“A” means <30 nM; “B” means ≥30 nM and <100 nM; “C” means ≥100 nM).

[2] = target: T2, R232H human STING variant (Homo sapiens, UniProt Q86WV6); assay: IRF3 reporter induction in THP1-Dual KI-hSTING-H232 Cells; conditions: THP1-Dual KI-hSTING-H232 Cells (R232H Haplotype)
T2 construct: host or cells: THP1-Dual KI-hSTING-H232 cells, generated from THP1-Dual KO-STING cells
Procedure: as §1, §2
(§4) NFkB and IRF3 reporter levels were also determined for THP1-Dual™ KI-hSTING-H232 Cells and THP1-Dual™ KI-hSTING-R232 Cells. THP1-Dual™ KI-hSTING-H232 Cells (R232H Haplotype) were generated from THP1-Dual™ KO-STING cells by knockin of the intronless coding sequence (from the ATG to TGA) of the R232H human STING variant (Invivogen). R232H has been identified as a natural variant allele of STING occurring in ˜14% of the human population. THP1-Dual™ KI-hSTING-R232 Cells (R232 Haplotype) were generated from THP1-Dual™ KO-STING cells by knockin of the intronless coding sequence (from the ATG to the TGA) of the R232 hSTING variant. Genomic studies indicate that this variant, which contains an arginine at position 232 (R232), is the most prevalent variant with an occurrence (homozygous allele) of ˜45-58% in the human population.
as §3

[3] = target: T3, R232 hSTING variant (Homo sapiens, UniProt Q86WV6, H232R); assay: IRF3 reporter induction in THP1-Dual KI-hSTING-R232 Cells; conditions: THP1-Dual KI-hSTING-R232 Cells (R232 Haplotype)
T3 construct: expressed in transfected cells; host or cells: THP1-Dual KI-hSTING-R232 cells, generated from THP1-Dual KO-STING cells
Procedure: as §1, §2, §4, §3

[4] = target: T4, Human STING (Homo sapiens, UniProt Q86WV6, G230A/H232R/R293Q/R71H); assay: Activation of human STING signaling in permeabilized THP1 cells, IRF3 induction; conditions: THP1-Dual cells permeabilized with digitonin buffer 30 minutes on ice, then 24 h in RPMI media
T4 construct: host or cells: THP1-Dual cells, digitonin-permeabilized
Procedure: as §2
4×10^5 THP1-Dual™ cells (NF-κB-SEAP and IRF-Lucia luciferase Reporter Monocytes, Invivogen) were incubated with test Compounds in a 5-fold titration steps from […] in permeabilized buffer (50 mM HEPES pH 7.0, 100 mM KCl, 3 mM MgCl2, 85 mM sucrose, 0.2% BSA, 1 mM ATP, 0.1 mM GTP, 0.1 mM TTP, 1 μg/ml digitonin) for 30 minutes on ice. Cells were then washed and incubated in a fresh RPMI media with 10% FBS at 37° C. with 5% CO2 for 24 h. Cell culture supernatants from each sample were collected and NFkB and IRF3 were evaluated as above. Table 3 provides the results for IRF3 induction (“A” means <1 μM; “B” means ≥1 μM and <50 μM; “C” means ≥50 μM).

T1 sequence (Q86WV6 whole entry R71H/G230A/H232R/R293Q): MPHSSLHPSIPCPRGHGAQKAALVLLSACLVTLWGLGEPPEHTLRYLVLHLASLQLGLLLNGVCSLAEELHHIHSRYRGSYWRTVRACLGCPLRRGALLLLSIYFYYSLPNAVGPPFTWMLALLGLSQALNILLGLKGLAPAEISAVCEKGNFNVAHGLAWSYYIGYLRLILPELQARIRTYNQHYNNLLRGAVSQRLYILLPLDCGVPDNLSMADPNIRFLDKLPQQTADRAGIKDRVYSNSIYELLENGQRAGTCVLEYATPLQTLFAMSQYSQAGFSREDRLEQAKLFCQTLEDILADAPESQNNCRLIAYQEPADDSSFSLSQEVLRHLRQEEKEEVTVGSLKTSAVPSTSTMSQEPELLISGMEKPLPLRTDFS
T4 sequence (Q86WV6 whole entry R71H/G230A/H232R/R293Q): as above
T2 sequence (Q86WV6 whole entry, stated change not applied): as the sequence (Q86WV6 whole entry R71H/G230A/H232R/R293Q) above, with H71R, A230G, R232H, Q293R counted along it
T3 sequence (Q86WV6 whole entry H232R): as the sequence (Q86WV6 whole entry R71H/G230A/H232R/R293Q) above, with H71R, A230G, Q293R counted along it

Compound	EC50 [1] [µM]	EC50 [2] [µM]	EC50 [3] [µM]	EC50 [4] [µM]
CCc1nc(C)oc1C(=O)Nc1nc2cc(C(N)=O)cc(OC)c2n1C/C=C/Cn1c(NC(=O)c2oc(C)nc2CC)nc2cc(C(N)=O)cc(OCCCO)c21 [compound 9]	0.03 to 0.1	< 0.03	< 0.03	< 1
CCc1nc(C)oc1C(=O)Nc1nc2cc(C(N)=O)cc(OC)c2n1C/C=C/Cn1c(NC(=O)c2oc(C)nc2CC)nc2cc(C(N)=O)cc(OCCCN)c21 [compound 18]	0.03 to 0.1			< 1
CCc1nc(C)oc1C(=O)Nc1nc2cc(C(N)=O)cc(OC)c2n1C/C=C/Cn1c(NC(=O)c2cc(C)nn2CC)nc2cc(C(N)=O)cc(OCCCO)c21 [compound 43]	< 0.03			< 1
CCc1nn(C)cc1C(=O)Nc1nc2cc(C(N)=O)cc(OCCCO)c2n1C/C=C/Cn1c(NC(=O)c2cc(C)nn2CC)nc2cc(C(N)=O)ccc21 [compound 53]	≥ 0.1			< 1
CCc1nc(C)oc1C(=O)/N=c1\sc2cc(C(N)=O)cc(OC)c2n1C/C=C/Cn1c(NC(=O)c2oc(C)nc2CC)nc2cc(C(N)=O)cc(OCCCO)c21 [compound 63]	≥ 0.1	< 0.03	< 0.03	< 1
CCn1nc(C)cc1C(=O)/N=c1\sc2cc(C(N)=O)cc(OC)c2n1C/C=C/Cn1c(NC(=O)c2cc(C)nn2CC)nc2cc(C(N)=O)cc(OCCCO)c21 [compound 65]	< 0.03			< 1
CCc1nc(C)oc1C(=O)/N=c1\sc2cc(C(N)=O)cc(OC)c2n1C/C=C/Cn1c(NC(=O)c2oc(C)nc2CC)nc2cc(C(N)=O)cc(OCCCC(=O)O)c21 [compound 66]	≥ 0.1	≥ 0.1	< 0.03	< 1
CCc1nc(C)oc1C(=O)Nc1nc2cc(C(N)=O)cc(OCCCO)c2n1C/C=C/Cn1/c(=N/C(=O)c2cc(C)nn2CC)sc2cc(C(N)=O)cc(OC)c21 [compound 69]	≥ 0.1	< 0.03	< 0.03	
CCc1nc(C)oc1C(=O)Nc1nc2cc(C(N)=O)cnc2n1C/C=C/Cn1c(NC(=O)c2oc(C)nc2CC)nc2cc(C(N)=O)cc(OCCCO)c21 [compound 95]	0.03 to 0.1	< 0.03	< 0.03	< 1
CCc1nc(C)oc1C(=O)Nc1nc2cc(C(N)=O)cnc2n1C/C=C/Cn1c(NC(=O)c2oc(C)nc2CC)nc2cc(C(N)=O)cc(OCCCC(=O)O)c21 [compound 97]	≥ 0.1			< 1
CCc1nc(C)oc1C(=O)/N=c1\sc2cc(C(N)=O)cnc2n1C/C=C/Cn1c(NC(=O)c2oc(C)nc2CC)nc2cc(C(N)=O)cc(OCCCO)c21 [compound 109]	0.03 to 0.1	< 0.03	< 0.03	< 1
CCc1nc(C)oc1C(=O)/N=c1\sc2cc(C(N)=O)cc(OCCCO)c2n1C/C=C/Cn1c(NC(=O)c2oc(C)nc2CC)nc2cc(C(N)=O)cnc21 [compound 146]	≥ 0.1	< 0.03	< 0.03	< 1
CCc1nc(C)oc1C(=O)/N=c1\sc2cc(C(N)=O)cc(OCCCO)c2n1C/C=C/Cn1c(NC(=O)c2cc(C)nn2CC)nc2cc(C(N)=O)cnc21 [compound 148]	≥ 0.1	< 0.03	< 0.03	< 1
CCc1nc(C)oc1C(=O)/N=c1\sc2nc(C(N)=O)cnc2n1C/C=C/Cn1c(NC(=O)c2oc(C)nc2CC)nc2cc(C(N)=O)cc(OCCCO)c21 [compound 167]	≥ 0.1	0.03 to 0.1	0.03 to 0.1	
